Assays:
DD model mice = assay: FST in constant darkness (DD) model mice; assay type: in vivo, mouse; details: for Immobility time (s) (mean ± SEM): oral once a day for 1 week
Protocol: (§1) Kunming mice (Certificate Number: A4CXK(Chuan)2003-16) from the Institute of Experimental Animals, People's Hospital of Sichuan Province, were used. They were 3-4 weeks old at the beginning of the experiments and weighed 25-30 g. ORG was prepared as described in Example 1. Animals were divided into experimental groups with different doses, vehicle control groups, and an imipramine group (Sigma, Batch No. 106k1588) as positive control.
DD model in mice: Mice were kept under 24 h continuous dark conditions. The replacement of padding, addition of food and water, and other operations were undertaken in the condition that the intensity of red light was less than 1.0 lux. The period of this condition lasted for 28 days. In the last week, ORG was administered orally once a day for 1 week. The FST and TST were carried out 30 min after the last administration. Methods and data analysis were as described above.

[1] = tested on: LTP in the CA1 area of hippocampus; assay: Long-term potentiation (LTP) recording in hippocampal slices of footshock-stressed rats; assay type: cell-based, rat
Protocol: Rats weighing 250-300 g, from the Institute of Experimental Animals, People's Hospital of Sichuan Province, were used. ORG was prepared as described in Example 1. Fluoxetine was from Wuhan Yuancheng Technology Co. (Wuhan, China; Batch No: 1004-0801002).
Method of long-term potentiation (LTP) recording in hippocampus: Excitatory postsynaptic potentials (EPSPs) in the hippocampus were recorded to determine the anti-stress effect of ORG. Stress impairs LTP in the CAl area of hippocampus, and this can be rescued by anti-stress drugs. Rats were stressed by footshock as follows: 1 mA, 2 s, 5 times at intervals of 2 min. Hippocampal slices were prepared, incubated for 1 h at 34-36° C., and then kept at room temperature. ORG was applied in the bath solution. EPSPs mediated by NMDA and AMPA receptors in the CA1 region were recorded until the baseline was stable for 20 min. Then high frequency stimulation (HFS, 100 Hz, 100 pulses, 20 s interval) was used to induce LTP. The EPSPs were recorded for 1 h after HFS.
Data Analysis: Data are expressed as mean±SEM and LTP is expressed as the percentage of the average amplitude of the last 10 min relative to the baseline. One-way ANOVA was used followed by the LSD test with SPSS 11 software. The significance level was set at P<0.05.

Kunming mice = assay: Elevated plus maze (EPM) test in mice; assay type: in vivo, mouse; details: i.p. 24 h and 5 h before test
Protocol: as §1, with “experiment” for “experiments”, “drug administration” for “experimental”, “doses of ORG, a” for “doses,”, “group,” for “groups,”, “a diazepam” for “an imipramine”, “(Jinyao Ltd. Co.,” for “(Sigma,”
Elevated plus maze (EPM): The EPM had two open and two closed arms of equal size (30 cm long×5 cm wide). The two closed arms were connected by a central 5 cm×5 cm area. The whole maze was elevated to a height of 35 cm. ORG was administered i.p. 24 h and 5 h before the test started. Mice were individually placed in the center of the maze facing a closed arm. Each animal was tested for 5 min in a single session. The number of entrances into open arms, the number of entrances into closed arms, the total time spent in open arms, and the total time spent in closed arms were recorded; a standard of entry was defined as all limbs entering the arm. The number of entrances into open arms and time spent in open arms were the major indexes to evaluate the anxiety level of the animals, for the more entrances or time, the less the anxiety level.
Data analysis: The results of the test are expressed as mean±SEM. One-way ANOVA was used followed by the LSD test with SPSS 11 software. The significance level was set at P<0.05.

SD model mice = assay: FST in sleep deprivation (SD) model mice; assay type: in vivo, mouse
Protocol: as §1, with “experiment” for “experimental”, “doses, a” for “doses,”, “group,” for “groups,”, “1061c1588)” for “106k1588)”
SD model: A modified method with multiple platforms in a water environment was used to establish the SD model in mice. Mice on the platforms were free to eat and drink. However, if it fell asleep, it fell into the water because of the loss of muscle tone. The fallen animal climbed onto the platform again via a tilt pole which propped up the platforms. After 72 h of sleep deprivation, ORG was administered orally 24 h and 5 h before the FST started. The immobility time of animals were recorded. Methods and data analysis were as described above.

Sprague-Dawley rats = assay: Forced swim test (FST) in rats; assay type: in vivo, rat; details: for Immobility time (s) (mean ± SEM): i.g.

Cc1cc(O)cc(OC2OC(CO)C(O)C(O)C2O)c1 [ORG, orcinol-1-O-β-D-glucopyranoside]
therapeutic index = TD50÷ED50 (DD model mice; DD mice): > 1182
Immobility time (s) (mean ± SEM) (DD model mice; DD mice, 2.5 mg/kg): 174.27 ± 11.89 s
Immobility time (s) (mean ± SEM) (DD model mice; DD mice, 5 mg/kg): 161.70 ± 14.89 s
Immobility time (s) (mean ± SEM) (DD model mice; DD mice, 10 mg/kg): 151.86 ± 8.89 s
Immobility time (s) (mean ± SEM) (DD model mice; DD mice, 40 mg/kg): 156.60 ± 13.86 s
Immobility time (s) (mean ± SEM) (DD model mice; DD mice, test 30 min after last dose, 1.25 mg/kg): 180.27 ± 10.36 s
dose of the best efficacy (DD model mice; DD model mice, ORG oral): 10 mg/kg
ED50 (DD model mice; Mus musculus, DD model mice, ORG oral): ~1.48 mg/kg
LTP, Average of last 10 min (mean ± SEM) ([1]; control (non-stressed) slices incubated with 5 μM, percentage of average EPSP amplitude of last 10 min relative to baseline): 122.93 ± 3.75
LTP, Average of last 10 min (mean ± SEM) ([1]; footshock (FS) stressed rat slices incubated with 50 nM, percentage relative to baseline): 128.99 ± 7.30
LTP, Average of last 10 min (mean ± SEM) ([1]; footshock (FS) stressed rat slices incubated with 5 μM, percentage relative to baseline): 189.56 ± 23.6
Number of entries into open arms (mean ± SEM) (Kunming mice; 5 mg/kg): 4.50 ± 0.58
Total time spent in the open arms (s) (mean ± SEM) (Kunming mice; 5 mg/kg): 50.00 ± 8.99 s
Number of entries into open arms (mean ± SEM) (Kunming mice; 20 mg/kg): 1.80 ± 0.79
Total time spent in the open arms (s) (mean ± SEM) (Kunming mice; 20 mg/kg): 16.50 ± 3.60 s
Number of entries into open arms (mean ± SEM) (Kunming mice; 100 mg/kg): 5.90 ± 0.57
Total time spent in the open arms (s) (mean ± SEM) (Kunming mice; 100 mg/kg): 70.60 ± 11.56 s
dose of the best efficacy (SD model mice; FST, SD model mice, ORG oral twice): 10 mg/kg
ED50 (SD model mice; Mus musculus, FST, SD model mice, ORG oral twice): ~3.79 mg/kg
therapeutic index = TD50÷ED50 (SD model mice; SD mice, FST): > 462
Immobility time (s) (mean ± SEM) (SD model mice; SD model mice (72 h sleep deprivation), oral 24 h and 5 h before FST, 1.25 mg/kg): 198.00 ± 11.43 s
Immobility time (s) (mean ± SEM) (SD model mice; SD model mice, 24 h and 5 h before FST, 7.5 mg/kg): 153.00 ± 11.83 s
Immobility time (s) (mean ± SEM) (SD model mice; SD model mice, oral 24 h and 5 h before FST, 2.5 mg/kg): 177.67 ± 15.95 s
Immobility time (s) (mean ± SEM) (SD model mice; SD model mice, oral 24 h and 5 h before FST, 5 mg/kg): 160.80 ± 11.64 s
Immobility time (s) (mean ± SEM) (SD model mice; SD model mice, oral 24 h and 5 h before FST, 10 mg/kg): 148.23 ± 7.80 s
Immobility time (s) (mean ± SEM) (SD model mice; SD model mice, oral 24 h and 5 h before FST, 20 mg/kg): 162.67 ± 9.27 s
dose of the best efficacy (Sprague-Dawley rats; ORG administered orally): 4 mg/kg
ED50 (Sprague-Dawley rats; Rattus norvegicus, po, ORG administered orally): ~0.22 mg/kg
Immobility time (s) (mean ± SEM) (Sprague-Dawley rats; 0.0625 mg/kg, given at 0 and 19 h after pre-test swim): 187.20 ± 11.97 s
Immobility time (s) (mean ± SEM) (Sprague-Dawley rats; 0.125 mg/kg): 181.50 ± 8.19 s
Immobility time (s) (mean ± SEM) (Sprague-Dawley rats; 0.1875 mg/kg): 138.90 ± 13.31 s
Immobility time (s) (mean ± SEM) (Sprague-Dawley rats; 0.25 mg/kg): 121.05 ± 9.44 s
Immobility time (s) (mean ± SEM) (Sprague-Dawley rats; 0.5 mg/kg): 113.70 ± 6.74 s
Immobility time (s) (mean ± SEM) (Sprague-Dawley rats; 1 mg/kg): 96.87 ± 7.40 s
Immobility time (s) (mean ± SEM) (Sprague-Dawley rats; 2 mg/kg): 91.60 ± 7.06 s
Immobility time (s) (mean ± SEM) (Sprague-Dawley rats; 4 mg/kg): 84.40 ± 9.20 s
Immobility time (s) (mean ± SEM) (Sprague-Dawley rats; 8 mg/kg): 94.30 ± 9.86 s
Immobility time (s) (mean ± SEM) (Sprague-Dawley rats; 16 mg/kg): 91.40 ± 11.36 s
Immobility time (s) (mean ± SEM) (Sprague-Dawley rats; 32 mg/kg): 107.26 ± 10.74 s
Immobility time (s) (mean ± SEM) (Sprague-Dawley rats; 64 mg/kg): 105.90 ± 19.77 s
Immobility time (s) (mean ± SEM) (Sprague-Dawley rats; 128 mg/kg): 103.00 ± 17.42 s

— patent publication US8859508B2, “Application of 5-methyl-1,3-benzenediol or derivatives thereof in the preparation of medicines and functional foods for treatment or prevention of depression” (Kunming Institute of Botany, Chinese Academy of Sciences, priority 2007, dated 2014)
